Data reported in ChEMBL document CHEMBL3507680, “University of Dundee, Gates Library screen for HepG2 cell viability”.

Assay: Human HepG2 cell viability assay in 384 well format
Format: toxicity, cell-based
Set-up: dose 125 nL, time 70.5 hour; cytotoxicity at 70.5 h: concentration not given beside the values
Details: HepG2 cells, read-out: Inhibition
Compound `Cc1cc(N2CCCN(C(=O)CSCC3CC3)CC2)ccn1` has a cytotoxicity at 70.5 h of -17.7%.
Compound `Cc1nc(CO[C@@H]2CC[C@H]3[C@H]2OCCN3Cc2cccnc2)cs1` has a cytotoxicity at 70.5 h of 14.5%.
`COc1ccc(Cl)cc1C(=O)NCc1cnn(C)c1C` gave a cytotoxicity at 70.5 h of -0.564%.
With `Fc1ccccc1-c1noc2c1CN(CC1CC1)CC2` the cytotoxicity at 70.5 h was -3.89%.
Compound `CC(C)C[C@H](Nc1nc(C2CCCC2)nc2c1cnn2C)C(N)=O` has a cytotoxicity at 70.5 h of -6.77%.
With `OCC1(NCc2cnc(-c3ccccn3)s2)CCOCC1` the cytotoxicity at 70.5 h was 28%.
`CC(C)c1ccc(C(C)N2CCCN(C(N)=O)CC2)cc1` (stereo not given) showed a cytotoxicity at 70.5 h of -5.71%.
`Cc1cccc(CN2CCn3c(COc4ncccn4)nnc3C2)n1` showed a cytotoxicity at 70.5 h of 4.18%.
In the case of `Cn1nc2c(cc1=O)CN(CC(=O)Nc1cc(C(C)(C)C)no1)CC2`, the cytotoxicity at 70.5 h is reported as 13.4%.
Compound `O=C(c1cocn1)N1C[C@H]2CCC[C@@]2(COc2ccccn2)C1` has a cytotoxicity at 70.5 h of 8.39%.
`CC(C)C1CN(Cc2nccn2C)CCC(=O)N1CC1CC1` (stereo not given) gave a cytotoxicity at 70.5 h of -2.87%.
Compound `CC1CCC(NCCCN2CCOCC2)CC1` (stereo not given) has a cytotoxicity at 70.5 h of -6.93%.
For `Cc1nn(C)c(Cl)c1C1CCCN1C(=O)c1cccn1C` (stereo not given), the cytotoxicity at 70.5 h was -10.5%.
`Cc1ccc(C)c(NC(=O)c2n[nH]c(-n3cnnc3)n2)c1` showed a cytotoxicity at 70.5 h of -0.779%.
For `CCCN(CCC)c1ncc(S(=O)(=O)c2cccc(C)c2)c(N)n1`, the cytotoxicity at 70.5 h was -20.1%.
Compound `CC(C)c1n[nH]c(C(=O)Nc2cc[nH]n2)c1Br` has a cytotoxicity at 70.5 h of 7.8%.
With `CN(C)CC1CN(Cc2ccc(-n3cccn3)cc2)CCO1` (stereo not given) the cytotoxicity at 70.5 h was 0.969%.
In the case of `O=C(c1cccnc1-c1ccc2c(c1)OCCO2)N1CCCC1`, the cytotoxicity at 70.5 h is reported as -8.05%.
Compound `COCCN(Cc1ccccc1C)c1nc(C)nc2oc(C)nc12` has a cytotoxicity at 70.5 h of 0.842%.
For `O=C(NC1CC1)N1CCN(c2cnccn2)CC1`, the cytotoxicity at 70.5 h was -1.17%.
With `CC(NC(=O)NCc1ccoc1)c1ccc2c(c1)CC(=O)N2` (stereo not given) the cytotoxicity at 70.5 h was -4.73%.
Compound `CC(SCCNS(=O)(=O)c1cnn(C)c1)c1cccs1` (stereo not given) has a cytotoxicity at 70.5 h of -4.4%.
In the case of `CN(Cc1cccc(F)c1)S(=O)(=O)N1CCOCC1`, the cytotoxicity at 70.5 h is reported as -3.2%.
In the case of `Cc1cccc(CN2CCC(N(C)Cc3nnc(C4CC4)n3C)C2)c1` (stereo not given), the cytotoxicity at 70.5 h is reported as -1.59%.
`CCS(=O)(=O)c1ncc(CN2CCCC2)n1CCc1ccccc1` showed a cytotoxicity at 70.5 h of -12.5%.
Work on `O=C(CCCOc1ccc(F)cc1)N1CCCC(n2cccn2)C1` (stereo not given) yielded a cytotoxicity at 70.5 h of 0.781%.
With `CCN(CC)C(=O)c1ccn(COc2ccc(F)cc2F)n1` the cytotoxicity at 70.5 h was -7.67%.
Compound `CCS(=O)(=O)NC(CCSC)C(=O)Nc1ccc(F)cc1` (stereo not given) has a cytotoxicity at 70.5 h of -85.2%.
Work on `Cc1oc(-c2nc(C#N)c(N(C)C)o2)cc1S(=O)(=O)N1CCCCCC1` yielded a cytotoxicity at 70.5 h of 12.8%.
With `COc1c(C)cnc(CN2CCCC(c3noc(C4CC4)n3)C2)c1C` (stereo not given) the cytotoxicity at 70.5 h was 7.81%.
With `Cc1noc(C)c1S(=O)(=O)NCC(C)(O)c1ccc2c(c1)OCO2` (stereo not given) the cytotoxicity at 70.5 h was -3.11%.
`CCN1CCC2(CC1)CC(NCc1cccs1)c1ccccc1O2` (stereo not given) gave a cytotoxicity at 70.5 h of -5.71%.
Compound `CC(=O)c1c(C)cc(C)c(CS(=O)(=O)c2nccn2C)c1C` has a cytotoxicity at 70.5 h of 8.95%.
`O=C(NCCc1ccccc1)N1C[C@H]2C[C@H](C(=O)N3CCCC3)[C@@H](C1)O2` showed a cytotoxicity at 70.5 h of 0.399%.
`CC(C)c1cc(C(=O)NCC2CCCN(c3ncccn3)C2)n(C)n1` (stereo not given) gave a cytotoxicity at 70.5 h of -5.82%.
For `COCc1noc(CNc2nc(C3CCCC3)nc3c2CCNCC3)n1`, the cytotoxicity at 70.5 h was -10.6%.
With `CCn1nc(CNC(=O)C2CCCN(CC(N)=O)C2)c2ccccc21` (stereo not given) the cytotoxicity at 70.5 h was -14.9%.
For `O=C(c1cccnc1)N1CCCC(c2cc(C(F)F)n3ncnc3n2)C1` (stereo not given), the cytotoxicity at 70.5 h was -13.8%.
With `CC(C)CN1C(=O)C2(CCCC2)NC1c1cn(C)c(=O)n(C)c1=O` (stereo not given) the cytotoxicity at 70.5 h was 0.777%.
`CN(C)Cc1ccnc(C2CN(CCc3ccccc3)CCO2)n1` (stereo not given) showed a cytotoxicity at 70.5 h of 17.9%.
Compound `CNC(=O)C1(CCCc2cnccn2)CCN1CCc1ccccc1` (stereo not given) has a cytotoxicity at 70.5 h of -2.58%.
`Cc1ccccc1N1CC2(CCN(Cc3nccn3C)C2)CC1=O` (stereo not given) gave a cytotoxicity at 70.5 h of -13.1%.
In the case of `O=c1[nH]c2c(c(=O)n1C1CCCCC1)CCC2Nc1ccccn1` (stereo not given), the cytotoxicity at 70.5 h is reported as 20.1%.
`CN1CCN(CC2CC2)C(=O)C12CCN(C(=O)c1cnccn1)CC2` gave a cytotoxicity at 70.5 h of -3.74%.
Work on `CCc1ncncc1C(=O)N1CCN(Cc2c(C)noc2C)CC1` yielded a cytotoxicity at 70.5 h of -11.6%.
